A short description of this data set: in vitro. The conditions noted are these: human, hela cells, % viability.

Consider `O=C(O)CSc1nc2ccc([N+](=O)[O-])cc2[nH]1` [CBK265192], for which the viability at 28.5 h, 10 µM stood at 86.9%. On the same count and under the same terms, as for `NS(=O)(=O)c1cc(C(=O)OCCNC(=O)c2ccccc2)c(Cl)cc1Cl` [CBK265193], the figure is 88.9%; as for `Fc1ccccc1CN1CCN(Cc2ccccn2)CC1` [CBK265194G], 100%; as for `O=C1OC(c2ccco2)=N/C1=C/Nc1ccc(C(=O)O)cc1` [CBK265195], 104%. Still for that read-out and setting: the same measure for `CN1CCN(C(=O)c2cnn(-c3ccccc3)c2NC(=O)c2ccc(F)cc2)CC1` [CBK265198]: 88.3%; for `COc1ccc(Cl)cc1Nc1nc(N)nc(CC(=O)CSc2ccc(C)cc2)n1` [CBK265200]: 90.2%; for `CCOc1ccc2nc(SCc3nc(N)nc(Nc4cccc(Cl)c4C)n3)sc2c1` [CBK265202]: 83.1%. The same measure, in the same setting: as for `O=C(CSc1nnc(-c2cccnc2)n1-c1ccccc1)Nc1ccc(Br)cc1` [CBK265203], the figure is 100%; as for `CCOc1ccc2[nH]c(=O)c(/C=C3\SC(=S)N(CCC(=O)O)C3=O)cc2c1` [CBK265213], 89.7%.

Consider `Cc1ccc(OCC(=O)NC(=S)Nc2cc(-c3nc4ncccc4o3)ccc2Cl)cc1` [CBK265214], for which the viability at 28.5 h, 10 µM turned out to be 103%.

For the compound `O=C(CN(c1ccc(F)cc1)S(=O)(=O)c1ccccc1)Nc1ccc2c(c1)OCCO2` [CBK265215], the viability at 28.5 h, 10 µM came out at 94.8%. On the same count and under the same terms, as for `Cn1c2c(c(=O)n(C)c1=O)CN(CCN1CCNCC1)CN2` [CBK265218], the figure is 104%; as for `COc1ccc(C2N(Cc3ccccc3)CCN2Cc2ccccc2)c(OC)c1OC` [CBK265220], 104%. Same read-out and setting: as for `CCc1n[nH]c(SCc2ccc(Br)cc2)n1` [CBK265221], the figure is 90.9%; as for `S=c1n(CN2CCC3(CC2)OCCO3)nc(-c2ccccc2Cl)n1-c1ccccc1` [CBK265222], 88.4%. The same measure, in the same setting: the same measure for `Nc1cc(O)nc(SCCN2CCN(c3ccc(C(F)(F)F)cc3[N+](=O)[O-])CC2)n1` [CBK265225]: 88.5%; for `O=C(NCc1ccccn1)c1cncc(Br)c1` [CBK265226]: 88.1%. With `CC(C)(C)c1ccc(-c2nc(Nc3cccc(C(=O)O)c3)c3ccccc3n2)cc1` [CBK265229C], the viability at 28.5 h, 10 µM was 96.6%. Same read-out and setting: as for `CN1CCN(C(=S)SCc2nc(N)nc(Nc3ccc(F)cc3)n2)CC1` [CBK265230], the figure is 81.4%; as for `Cc1ccc(S(=O)(=O)NCc2c(-c3ccccc3)c3cc(Br)ccc3[nH]c2=O)cc1` [CBK265231], 98.3%; as for `COc1ccc(Nc2nc(N)nc(CSC(=S)N3CCN(C)CC3)n2)cc1` [CBK265232], 90.8%. As for `COc1cccc(CCNC2CC(=O)N(c3ccc(NC(C)=O)cc3)C2=O)c1` (centres unmarked) [CBK265233], the viability at 28.5 h, 10 µM stood at 109%. On the same count and under the same terms, the same measure for `Cc1ccc(S(=O)(=O)NC2=NCN(CCOC(=O)c3ccc([N+](=O)[O-])cc3)CN2)cc1` [CBK265235]: 92.8%; for `CC(=O)Nc1ccc(N2C(=O)CC(NCCCN3CCOCC3)C2=O)cc1` (centres unmarked) [CBK265236]: 115%. For the compound `CC(CN1CCCCC1)OC(=O)C(c1ccccc1)c1ccccc1` (centres unmarked) [CBK265237C], the viability at 28.5 h, 10 µM came to 104%. Still for that read-out and setting: the same measure for `Cc1ccc(CSCc2nc3ccccc3[nH]2)cc1` [CBK265238]: 90%. On to `O=C(/C=C/c1ccc2c(c1)OCO2)NCCSCc1c(F)cccc1Cl` [CBK265239], for which the viability at 28.5 h, 10 µM came out at 90.3%. The same measure, in the same setting: as for `Cc1ccc2nc3c(cc(C(=O)NC4CCCC4)c(=N)n3Cc3ccco3)c(=O)n2c1` [CBK265242], the figure is 81%. For `Cc1ccc(/C=N/n2c(S)nnc2COc2ccccc2)o1` [CBK265244], the viability at 28.5 h, 10 µM amounted to 110%. Consider `Cc1ccc(N(CC(=O)Nc2ccccc2C(N)=O)S(=O)(=O)c2ccccc2)cc1C` [CBK265246], for which the viability at 28.5 h, 10 µM was 94.4%. Still for that read-out and setting: as for `O=C(O)C(CCCCN1C(=O)c2ccccc2C1=O)N1C(=O)c2ccccc2C1=O` (centres unmarked) [CBK265250], the figure is 91.7%; as for `CC1=NN(c2ccccc2)C(=O)/C1=C\c1cn(CCC(=O)O)nc1-c1cc2ccccc2o1` [CBK265252], 88.1%. As to `COc1ccccc1NC(=O)CN(c1ccc(Br)cc1)S(C)(=O)=O` [CBK265254], the viability at 28.5 h, 10 µM was 99.3%. Still for that read-out and setting: the same measure for `O=C(CC1(O)C(=O)N(Cc2ccccc2Cl)c2ccccc21)c1cc2ccccc2oc1=O` (centres unmarked) [CBK265255]: 96.2%; for `COc1ccc(/C=C(/C(=O)NCc2ccc(Cl)cc2Cl)c2ccccc2)cc1` [CBK265256]: 89.9%. The same measure, in the same setting: as for `O=C(O)/C=C\c1cn(-c2ccccc2)nc1-c1cc2ccccc2o1` [CBK265257], the figure is 92.7%. Still for that read-out and setting: the same measure for `COc1ccc(N(CC(=O)N2CCN(Cc3ccc4c(c3)OCO4)CC2)S(C)(=O)=O)cc1Cl` [CBK265258]: 84.3%; for `COC(=O)CN1C(=O)S/C(=C/c2ccc(OCc3cccc(C(=O)O)c3)c(Cl)c2)C1=O` [CBK265262]: 90.2%. For the compound `NC(=O)c1ccccc1NC(=O)CN(c1cccc(Br)c1)S(=O)(=O)c1ccccc1` [CBK265263], the viability at 28.5 h, 10 µM was 92.1%. As to `OCCCNC(=S)Nc1ccc(Cl)cc1Cl` [CBK265264], the viability at 28.5 h, 10 µM was 96.6%. Same read-out and setting: as for `O=C(O)C1CCN(S(=O)(=O)c2ccccc2[N+](=O)[O-])CC1` [CBK265267], the figure is 98.6%; as for `Sc1nnc(COc2ccccc2)n1/N=C/c1ccc(-c2ccccc2)cc1` [CBK265269], 117%.

`CCN1C(=O)/C(=C\c2ccc(-c3cccc(C(=O)O)c3C)o2)C(=O)N(c2ccc(Cl)cc2)C1=S` [CBK265270]: the viability at 28.5 h, 10 µM (bulk resorufin, single well) was 99.9%. In the case of `O=c1c2c(n3c(S)nnc3n1Cc1ccco1)-c1ccccc1CC21CCCCC1` [CBK265271], the viability at 28.5 h, 10 µM is 94.7%. Regarding `Sc1nnc(-c2ccncc2)n1/N=C/c1c[nH]c2ccccc12` [CBK265272], the viability at 28.5 h, 10 µM was found to be 85.8%. Still for that read-out and setting: the same measure for `O=C(/C=C\c1cn(-c2ccccc2)nc1-c1cccc([N+](=O)[O-])c1)n1nnc2ccccc21` [CBK265273]: 104%. Same read-out and setting: as for `Cc1ccc(NC(=O)c2cc(N3C(=O)c4ccc(C(=O)O)cc4C3=O)ccc2N2CCCCC2)cc1` [CBK265274], the figure is 99.9%; as for `O=C(CCC(=O)OCN1C(=O)c2ccccc2C1=O)Nc1ccc2ccccc2c1` [CBK265277], 108%; as for `Sc1nnc(COc2ccccc2)n1/N=C/c1ccccn1` [CBK265279], 102%. The same measure, in the same setting: as for `CN1CCN(c2cc(N3CCN(C(=O)c4ccc(F)cc4F)CC3)c([N+](=O)[O-])cc2F)CC1` [CBK265280], the figure is 95.1%; as for `COc1cccc(/C=C2/NC(=O)N(Cc3ccc(F)cc3)C2=O)c1OCc1cccc(C(=O)O)c1` [CBK265282], 89.1%; as for `COc1ccc(-c2oc3ncn4nc(COc5ccccc5C)nc4c3c2-c2ccc(OC)cc2)cc1` [CBK265283], 94.8%. For `Cc1cccc(OCc2nc3c4c5c(sc4ncn3n2)CCCCC5)c1C` [CBK265284], the viability at 28.5 h, 10 µM was found to be 104%. Same read-out and setting: as for `O=C(Oc1ccc2c(c1)C1C=CCC1C(C(=O)O)N2)c1ccc(Cl)cc1Cl` (centres unmarked) [CBK265285], the figure is 94.2%; as for `Cc1nc2c(oc3nc(-c4ccoc4)c4c(c32)CC(C)(C)OC4)c(-c2ccccc2)c1C(=O)O` [CBK265286], 109%; as for `CSc1nc(O)c(C(c2ccc(C(=O)O)cc2)c2c(O)nc(SC)nc2O)c(O)n1` [CBK265288], 94.8%.

For `Cc1[nH]c2ccccc2c1/C=C1/C(=N)N2C(SCc3ccccc3)=NSC2=NC1=O` [CBK265291], the viability at 28.5 h, 10 µM stood at 90%. For `O=C(Cc1ccccc1[N+](=O)[O-])Nc1ccc(S(=O)(=O)N2CCCC2)cc1` [CBK265292], the viability at 28.5 h, 10 µM is 87.1%. As to `O=C(O)CCn1cc(C=C2C(=O)NC(=S)NC2=O)c(-c2cc3ccccc3oc2=O)n1` [CBK265293], the viability at 28.5 h, 10 µM (bulk resorufin, single well) was determined as 91.8%. As for `CCOC(=O)c1c(-c2cccs2)csc1NC(=O)CN1CCCCCC1` [CBK265294G], the viability at 28.5 h, 10 µM was 106%. Still for that read-out and setting: as for `Cc1cc(C)c(C)c(S(=O)(=O)N2CCN(c3ncnc4sc(C)c(C)c34)CC2)c1C` [CBK265297], the figure is 90.2%; as for `c1ccc(-c2c(-c3ccccc3)n(Cc3ccco3)c3ncn4nc(-c5ccncc5)nc4c23)cc1` [CBK265298], 89.6%; as for `CC(C)C(=O)NC(c1ccc(C(C)C)cc1)c1cc([N+](=O)[O-])c2cccnc2c1O` (centres unmarked) [CBK265303], 103%.

Regarding `Cc1ccc(S(=O)(=O)Oc2ccc(C(c3c(C)n[nH]c3O)c3c(C)n[nH]c3O)cc2)cc1` [CBK265305], the viability at 28.5 h, 10 µM was found to be 104%. Same read-out and setting: the same measure for `COc1cc(/C=N/n2c(S)nnc2-c2cccnc2)ccc1OCc1ccccc1` [CBK265307]: 110%; for `Sc1nnc(COc2ccccc2)n1/N=C/c1cccnc1` [CBK265308]: 103%; for `Cc1ccc2nc(-c3ccc(N4C(=O)CC(N5CCC(N6CCCCC6)CC5)C4=O)cc3)sc2c1` (centres unmarked) [CBK265315]: 114%. Turning to `CN(C)CCCNC(=S)NC(=O)c1ccccc1` [CBK265317], the viability at 28.5 h, 10 µM turned out to be 117%. With `COc1ccc(-c2nn(CCC(=O)O)cc2/C=C2\SC(=S)NC2=O)cc1OC` [CBK265318], the viability at 28.5 h, 10 µM is 108%. Take `CCOC(=O)c1c(NC(=O)CCN2CCCCC2)sc2c1CCCCC2` [CBK265319G]: the viability at 28.5 h, 10 µM stood at 89.9%. For the compound `COc1cc(/C=N/n2c(S)nnc2C(F)(F)F)cc(Br)c1O` [CBK265321], the viability at 28.5 h, 10 µM was determined as 74.2%. On to `CCc1ccc(N(CC(=O)NCc2ccccn2)S(C)(=O)=O)cc1` [CBK265322], for which the viability at 28.5 h, 10 µM turned out to be 98.8%. In the case of `Cc1ccc(NC(=O)c2cc(NC(=O)C3CC=CCC3C(=O)O)ccc2N2CCOCC2)cc1Cl` (centres unmarked) [CBK265323], the viability at 28.5 h, 10 µM is 105%. Same read-out and setting: the same measure for `CC(CN1CCCCC1)OC(=O)COc1ccc(Br)cc1` (centres unmarked) [CBK265326C]: 96.9%.

The values above are taken from article PMC12040169 (PLOS Biology, 2025).
